Results taken from patent US20250171420A1 (Monte Rosa Therapeutics, Inc., priority 2022, published 2025).

Columns and labels:
Type in all cases: cell-based
CK1α [1] = target: T1, CK1α (Homo sapiens, UniProt P48729); experiment: CK1α NanoBit Assay (HiBiT-tagged CSNK1A1, HEK293 clonal lines); conditions: HEK293 HiBiT-CSNK1A1/LgBiT cells, 24 h incubation
T1 construct: HEK293 clonal lines with CRISPR KI HiBiT tag on CSNK1A1
In short: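 HEK293 clones carrying a CRISPR knock-in HiBiT tag on CSNK1A1 and stably expressing LgBiT are treated with compound for 24 hours at 37° C, 5% CO2, then read by luminescence. Response is normalized as 100*(S−N)/(P−N) against plate negative and positive controls, and DC50 values are derived.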

SKCO1 cell line = experiment: Growth inhibition, CyQUANT Direct Cell Proliferation Assay, SKCO1; conditions: Homo sapiens, SK-CO-1; SKCO1, 120 to 168 hours; read-out: SKCO1 GI50
In short: (§1)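 Cells seeded 300 to 1,800 per well, day-0 CyQUANT Direct read after overnight attachment; 9-point 3-fold dilutions from 30 μM top concentration, 120 to 168 h exposure, 0.3% DMSO control. Fluorescence Ex/Em 480/520 nm; growth inhibition normalised to day-0 and untreated day-N signals, GI50 at 50% of untreated control.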

CK1α [2] = target: T2, CK1α (Homo sapiens, UniProt P48729+Q96SW2); experiment: Western blot of CK1α levels in HEK293 and HEK293 CRBN knock out cells; conditions: 0.1, 1, 10 μM, 24 hours, FIG. 1
T2 construct: HEK293 clonal lines with CRISPR KI HiBiT tag on CSNK1A1
T2 sequence (P48729 whole entry): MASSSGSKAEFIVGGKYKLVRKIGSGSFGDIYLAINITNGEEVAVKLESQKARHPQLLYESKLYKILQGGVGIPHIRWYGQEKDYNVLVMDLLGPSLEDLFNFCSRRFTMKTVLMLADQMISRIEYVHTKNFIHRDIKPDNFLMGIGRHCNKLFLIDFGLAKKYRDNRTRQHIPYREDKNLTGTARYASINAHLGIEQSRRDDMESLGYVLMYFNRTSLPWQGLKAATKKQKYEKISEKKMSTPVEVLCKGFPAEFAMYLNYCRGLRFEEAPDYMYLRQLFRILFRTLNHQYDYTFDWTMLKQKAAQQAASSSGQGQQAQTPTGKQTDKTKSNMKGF
T2 sequence (Q96SW2 whole entry): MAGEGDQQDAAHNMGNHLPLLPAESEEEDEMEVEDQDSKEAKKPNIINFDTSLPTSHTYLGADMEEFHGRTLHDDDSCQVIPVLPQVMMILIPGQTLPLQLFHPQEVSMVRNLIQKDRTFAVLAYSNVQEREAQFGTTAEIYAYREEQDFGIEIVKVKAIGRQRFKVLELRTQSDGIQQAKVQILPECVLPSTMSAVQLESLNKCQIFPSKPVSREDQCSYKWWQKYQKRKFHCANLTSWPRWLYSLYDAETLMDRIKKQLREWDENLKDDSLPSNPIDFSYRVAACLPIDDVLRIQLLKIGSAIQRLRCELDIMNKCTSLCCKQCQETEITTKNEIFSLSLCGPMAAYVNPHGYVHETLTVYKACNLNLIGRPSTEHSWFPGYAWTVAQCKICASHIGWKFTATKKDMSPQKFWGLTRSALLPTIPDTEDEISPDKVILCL
T2 sequence (Q16531 2-1140 partner limits assumed): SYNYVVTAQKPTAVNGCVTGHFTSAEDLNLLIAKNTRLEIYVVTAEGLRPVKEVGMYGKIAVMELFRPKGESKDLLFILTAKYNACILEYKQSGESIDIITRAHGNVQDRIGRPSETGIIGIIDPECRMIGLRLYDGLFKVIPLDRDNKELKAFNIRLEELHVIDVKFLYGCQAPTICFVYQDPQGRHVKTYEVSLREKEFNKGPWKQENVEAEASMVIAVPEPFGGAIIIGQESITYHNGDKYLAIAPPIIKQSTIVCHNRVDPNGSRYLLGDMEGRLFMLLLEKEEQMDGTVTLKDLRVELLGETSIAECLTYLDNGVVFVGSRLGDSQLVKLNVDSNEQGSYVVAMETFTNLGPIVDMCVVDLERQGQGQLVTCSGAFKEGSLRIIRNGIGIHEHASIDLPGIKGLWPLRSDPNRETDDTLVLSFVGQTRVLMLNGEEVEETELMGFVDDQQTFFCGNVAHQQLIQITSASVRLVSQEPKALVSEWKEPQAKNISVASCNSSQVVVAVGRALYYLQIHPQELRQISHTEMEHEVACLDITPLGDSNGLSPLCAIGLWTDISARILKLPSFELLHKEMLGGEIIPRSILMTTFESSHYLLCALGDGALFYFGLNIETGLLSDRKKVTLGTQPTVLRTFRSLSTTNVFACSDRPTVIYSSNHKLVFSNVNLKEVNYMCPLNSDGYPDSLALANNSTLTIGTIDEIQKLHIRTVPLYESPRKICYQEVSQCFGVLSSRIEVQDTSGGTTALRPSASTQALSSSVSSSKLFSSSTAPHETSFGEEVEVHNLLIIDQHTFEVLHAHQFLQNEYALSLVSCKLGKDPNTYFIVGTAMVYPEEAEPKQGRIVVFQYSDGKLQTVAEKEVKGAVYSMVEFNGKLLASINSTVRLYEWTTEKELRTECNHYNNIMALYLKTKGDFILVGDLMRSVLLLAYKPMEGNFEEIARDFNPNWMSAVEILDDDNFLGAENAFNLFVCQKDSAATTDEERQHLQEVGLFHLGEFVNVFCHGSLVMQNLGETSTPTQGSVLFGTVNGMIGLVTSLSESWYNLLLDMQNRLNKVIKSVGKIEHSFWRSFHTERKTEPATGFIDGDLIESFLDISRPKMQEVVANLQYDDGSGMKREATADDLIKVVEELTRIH
Description: HEK293 cell line was purchased from ATCC (CRL-1573). HEK293 CRBN knock out (k/o) cell line (B2) was generated internally using CRISPR/Cas9 method and clonally expanded. Cells were plated at 2×10^5 cells per well in 6-well tissue culture plates (VWR) in 2 ml of DMEM media (Gibco) containing 10% FBS (Gibco), and incubated for 16 hours at 37° C., 5% CO2. Compounds were added to final concentration of 0.1 μM, 1 μM, 10 μM (DMSO concentration was kept constant at 0.1%), following incubation at 37° C., 5% CO2 for additional 24 hours. Cell lysis was performed using RIPA buffer (Pierce) containing Halt™ Protease Inhibitor Cocktail (ThermoFisher Scientific). Lysates were boiled at 95° C. for 10 minutes and 12 μg of protein lysate per sample was resolved by SDS-PAGE using 12% gels (BioRad) and transferred to nitrocellulose membrane (BioRad). Membranes were blocked using LI-COR blocking buffer (LI-COR) at room temperature for 1 hour, followed by overnight incubation with rabbit anti-CK1α (Abcam ab206652), rabbit anti-CRBN (Sigma HPA045910) and mouse anti-α-tubulin (Sigma T9026) antibodies at 4° C. Secondary antibodies (LI-COR) were added for 1 hour at room temperature, followed by imaging with LI-COR imaging system Odyssey® CLx.

LS180 cell line = experiment: Growth inhibition, CyQUANT Direct Cell Proliferation Assay, LS180; conditions: Homo sapiens; LS180, 120 to 168 hours; read-out: LS180 GI50
In short: as §1

LS174T cell line = experiment: Growth inhibition, CyQUANT Direct Cell Proliferation Assay, LS174T; conditions: Homo sapiens, 120 to 168 hours, read-out: LS174T GI50
In short: as §1

T1 sequence (P48729 whole entry): as the sequence (P48729 whole entry) above
T1 sequence (Q96SW2 whole entry, further chain): as the sequence (Q96SW2 whole entry) above
T1 sequence (Q16531 2-1140 partner limits assumed): as the sequence (Q16531 2-1140 partner limits assumed) above

DC50 (CK1α [1]): < 0.1 µM
GI50 (SKCO1 cell line): < 100 nM
effect on CK1a levels in HEK293 cell line (CK1α [2]; HEK293, cereblon present): decreases CK1a levels
effect on CK1a levels in cereblon (CRBN) knock-out HEK293 cell line (CK1α [2]; HEK293 CRBN knock-out): no effect on CK1a levels
Compound: C[C@@H]1Cc2ccccc2N1C(=O)Nc1ccc2c(c1)CN(C1CCC(=O)NC1=O)C2=O (stereo partly drawn) [Compound 102, (2R)—N-(2-(2,6-dioxopiperidin-3-yl)-1-oxoisoindolin-5-yl)-2-methylindoline-1-carboxamide]
GI50 (LS180 cell line): 100 to 1000 nM
GI50 (LS174T cell line): 100 to 1000 nM
